Data taken from paper PMC8564765 (Journal of medicinal chemistry, 2021).

System: MPO activity
Test: MR imaging of CFA-induced subcutaneous inflammation
Format: in vivo
Conditions: wild-type mice, 0.3 mmol/kg

CNC[C@H](O)[C@@H](O)[C@H](O)[C@H](O)CO.O=C([O-])CN1CCN(CC(=O)[O-])CCN(CC(=O)O)CCN(CC(=O)[O-])CC1.[Gd+3] [DOTA-Gd, gadoterate meglumine] was tested, and the “Course of CNR over 60 min” value was “decreased rapidly over time”.
